Measured values reported in patent publication US9931342B2, “Compositions and methods for the treatment of cancer” (Duke University, priority 2016, dated 2018).

Legend:
[1] = test system: FH-deficient HLRCC; conditions: cited from earlier work
[2] = test system: 1833 breast cancer cells; experiment: Breast cancer bone metastasis after intra-cardiac injection of 1833 cells in mice; assay type: in vivo
Source text: (A) Experimental design. (B) Survival of mice after intra-cardiac injection of 1833 (1×10^5) breast cancer cells and treatment with either dimethyl sulfoxide (DMSO) control or the allosteric ABL inhibitor GNF5. n=10 mice per group. (C) Bioluminescent images of representative mice at day 22 after inoculation. (D) Quantification of bone metastases. n=10 mice per group. (E and F) Representative H&E staining (E) and quantification (F) of H&E stained tumor area of bone lesions. Arrows indicate tumor. n=3 mice per group. Scale bar, 200 μm. (G and H) Representative x-ray and μCT reconstruction (G) of mouse tibias and quantification (H) of bone volume/total volume. n=3 mice per group.
Procedures involving mice were approved and performed following the guidelines of the Institutional Animal Care and Use Committee (IACUC) of Duke University Division of Laboratory Animal Resources (DLAR). Age-matched female athymic NCr nu/nu mice (5 to 6 weeks old) were used for xenograft experiments. For intra-cardiac injections, cells were harvested from sub-confluent culture plates, washed with phosphate-buffered saline (PBS), and resuspended at 106/ml (1833) or 5×10^6/ml (SCP28) in PBS; 0.1 ml of the suspended cells was injected into the left cardiac ventricle using 30-gauge needles. Mice were anesthetized with isoflurane before injection and imaged by bioluminescence imaging. For intra-tibial injections, mice were anesthetized using a mixture of ketamine (100 mg/kg) and xylazine (10 mg/kg). The injection site was cleaned with a 70% alcohol wipe. Single-cell suspensions (1×10^5 cells) in a final volume of […] were injected into the upper half of the tibia medullary cavity, as felt by a lack of resistance when pushing cells into the cavity. Bioluminescence imaging was used to confirm successful cancer cell inoculation and progression of metastatic bone lesions. The allosteric inhibitor GNF5 was synthesized by the Duke University Small Molecule Synthesis Facility. For drug treatment, the mice were dosed daily with GNF5 in DMSO/peanut oil (1:9) at 50 mg/kg by intraperitoneal injection.
Hind limb bones were excised, fixed in 10% neutral-buffered formalin, and imaged using a μCT scanner (SkyScan 1176, Bruker Corp.) at […] and 180° scanning with a rotation step of 0.7° per image, 242-ms exposure time, 55-kV photon energy, and […]. The images were reconstructed using NReconServer, and bone volume was analyzed by CT analysis software (CTAn, Bruker Corp.).
Hind limb bones were excised, fixed in 10% neutral-buffered formalin, decalcified, and embedded in paraffin for H&E staining (Zhang et al., Cancer Cell, 2009).

[3] = test system: TAZ; experiment: TAZ protein abundance, immunoblot of 1833 cells; assay type: cell-based, human; conditions: 20 μM, 24 hours
Description: Control 1833 cells or 1833 cells expressing murine Ab12-E505K mutant protein were plated (3×10^5 cells per group) in six well plates. Cells were then treated with vehicle (DMSO) or GNF5 (20 μM) for 24 hours and immunoblotted with the indicated antibodies. n=3 blots.
(§1) Cells were lysed in radio-immunoprecipitation assay buffer with protease and phosphatase inhibitors. Cell debris was removed by microcentrifugation, and protein was quantified. Alternatively, equal cell numbers were plated onto six-well plates, and 24 hours later, conditioned medium was harvested and concentrated using Amicon Ultra Centrifugal Filters (Millipore). Equal amounts of protein or conditioned medium were separated by SDS-polyacrylamide gel electrophoresis and transferred onto nitrocellulose membranes and probed with the indicated antibodies.

[4] = test system: RAF-ERK pathway; experiment: ERK activation, Western blot of 1833 breast cancer cell lysates; assay type: cell-based, human; conditions: 10 μM, 3 hours, 1833 cells
Description: as §1

[5] = 50 mg/kg daily i.p. starting day 8

Compound | cytotoxicity to FH-deficient HLRCC [1] | bone destruction (x-ray, μCT) [2, 5] | bone tumor burden by histological analyses (H&E) [2, 5] | bone metastasis burden by bioluminescence imaging ([2]; 50 mg/kg daily i.p. starting day 8, day 22 imaging) | ratio of bone volume to total volume (μCT) ([2]; 50 mg/kg daily i.p. starting day 8, mouse tibias) | survival of tumor-bearing mice ([2]; 50 mg/kg daily i.p. starting day 8 after intra-cardiac injection) | TAZ protein abundance ([3]; 1833 cells expressing murine ABL2-E505K (GNF5-resistant mutant)) | TAZ protein abundance ([3]; control 1833 cells) | ERK activation (phospho-Erk) [4]
COc1cc2c(Nc3ccc(Br)cc3F)ncnc2cc1OCC1CCN(C)CC1 [vandetanib] | cytotoxic |  |  |  |  |  |  |  | 
O=C(NCCO)c1cccc(-c2cc(Nc3ccc(OC(F)(F)F)cc3)ncn2)c1 [GNF5] |  | decreased | decrease | decrease | increased | significant increase | not decreased | decreased | does not activate
Cc1ccc(NC(=O)c2ccc(CN3CCN(C)CC3)cc2)cc1Nc1nccc(-c2cccnc2)n1 [imatinib] | cytotoxic |  |  |  |  |  |  |  | promotes ERK activation
